The source of these data is patent publication US20050209441A1, “Process for promoting proper folding of human serum albumin using a human serum albumin ligand” (priority 2004, published 2005).

Like-named read-outs stand apart in the source and are kept apart here. Some results are limits rather than exact numbers.

For the experiment, the target named is human serum albumin (HSA) (Homo sapiens, UniProt P02768). In words: HSA refolding with ligand assistance (ED50 for refolding). The protocol: Sodium caprate is added to Solution B to a final concentration of 10 mM. Solution B is held at 37° C. for 1-5 minutes.
Step C. […] Sodium caprate is added to Solution C to a final concentration of 10 mM. Solution C is held at 37° C. for a period of 30 minutes.

Sequence of human serum albumin (HSA) (P02768 25-609): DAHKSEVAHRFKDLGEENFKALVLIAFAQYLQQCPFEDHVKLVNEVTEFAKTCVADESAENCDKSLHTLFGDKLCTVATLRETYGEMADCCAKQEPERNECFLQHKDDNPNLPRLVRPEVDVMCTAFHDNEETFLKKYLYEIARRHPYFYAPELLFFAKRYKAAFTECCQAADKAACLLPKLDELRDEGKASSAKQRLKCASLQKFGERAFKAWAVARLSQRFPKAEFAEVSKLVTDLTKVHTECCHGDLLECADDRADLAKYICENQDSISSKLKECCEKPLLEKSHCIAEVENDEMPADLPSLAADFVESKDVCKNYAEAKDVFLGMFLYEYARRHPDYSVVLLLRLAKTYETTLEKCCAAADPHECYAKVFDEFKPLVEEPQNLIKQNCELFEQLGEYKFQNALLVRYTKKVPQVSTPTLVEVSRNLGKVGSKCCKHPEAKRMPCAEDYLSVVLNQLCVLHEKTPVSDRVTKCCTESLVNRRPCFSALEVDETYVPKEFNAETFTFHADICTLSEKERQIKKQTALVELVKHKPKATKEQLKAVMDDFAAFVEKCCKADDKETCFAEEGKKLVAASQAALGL

`CCCCO` [1-Butanol (C4), 1-Butanol]: for the setting “Table 1”, the “Optimal Concentration (refolding ligand)” value is reported as 500 mM.

On to `CCCCCCCCCCO` [1-Decanol (C10), 1-Decanol], for which a half-maximal response (EC50) required 300 µM. For the same compound, the “Optimal Concentration (refolding ligand)” value (Table 1) was 3 mM.

Consider `CCCCCCCCCCCCO` [1-Dodecanol (C12), 1-Dodecanol], for which a half-maximal effect (EC50) was put at 230 µM and the “Optimal Concentration (refolding ligand)” value is 0.3 mM (saturated).

`CCCCCCO` [1-Hexanol (C6), 1-Hexanol]: the “Optimal Concentration (refolding ligand)” value (Table 1) turned out to be 25 mM.

As for `CCCCCCCCO` [1-Octanol (C8), 1-Octanol], the EC50 – broadly, the concentration that produces a half-maximal response – is 450 µM. For the same compound, under “Table 1”, the “Optimal Concentration (refolding ligand)” value is reported as 3 mM.

As for `CCCCCO` [1-Pentanol (C5), 1-Pentanol], for the setting “Table 1”, the “Optimal Concentration (refolding ligand)” value was 150 mM.

With `CCCCCC(=O)[O-].[Na+]` [Na Caproate, sodium caproate], the “Optimal Concentration (refolding ligand)” value (Table 1) is listed as over 30 mM.

In turn, `CCCCCCCCCCCC(=O)[O-].[Na+]` [Na Laurate, sodium laurate] gave an EC50 of 45 µM. For the same compound, where the note is “Table 1”, the “Optimal Concentration (refolding ligand)” value stood at 1 mM.

As for `CCCCOC(=O)c1ccc(N)cc1` [n-butyl p-aminobenzoate], the midpoint of the response, the EC50, lay at 800 µM.
